Assay results: US6806230B1, “Pyrimidine derivatives and herbicides containing them” (Kumiai Chemical Industry Co., Ltd., priority 1999, dated 2004)

Assays:
Type in all cases: in vivo
barnyard grass (Ec) [1] = assay: Test Example 3: herbicidal effects by foliage treatment in upland field; set-up: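 0-5 growth inhibition grade; 5 = over 90%; 4 = 70-90%; 3 = 50-70%; 2 = 30-50%; 1 = 10-30%; 0 = under 10%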; details: dose 100 g active ingredient per 10 ares, examined on the 14th day after treatment
Summary of the method: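 Barnyard grass and green foxtail were grown in upland soil for 2 weeks in a greenhouse. A water-diluted wettable powder was sprayed over the foliage at 100 l per 10 ares, giving 100 g active ingredient per 10 ares. Herbicidal effect was scored on day 14 after treatment.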

monochoria (Mo) [2] = assay: Test Example 1: herbicidal effects by flooded paddy field treatment; set-up: herbicidal effects, Mo (monochoria):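 0-5 growth inhibition grade; 5 = over 90%; 4 = 70-90%; 3 = 50-70%; 2 = 30-50%; 1 = 10-30%; 0 = under 10%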; details: for herbicidal effects, Mo (monochoria): dose 100 g active ingredient per 10 ares, examined on the 21st day after treatment, standards of Table 44; for Herbicidal effect index, Mo: dose 100 gai/10a, examined on 21st day after treatment, index 0-5 per Table 44;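 for Herbicidal effect index, Mo: 0-5 growth inhibition grade; 5 = over 90%; 4 = 70-90%; 3 = 50-70%; 2 = 30-50%; 1 = 10-30%; 0 = under 10%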
Summary of the method: (§1)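 Seeds were sown in puddled paddy soil in pots and flooded to 3 cm. The next day a water-diluted wettable powder was dripped onto the water surface at 100 g active ingredient per 10 ares. Plants grew in a greenhouse, and herbicidal effect was scored on a rating scale 21 days after treatment.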

barnyard grass (Ec) [3] = assay: Test Example 2: herbicidal effects by upland soil treatment; set-up: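 0-5 growth inhibition grade; 5 = over 90%; 4 = 70-90%; 3 = 50-70%; 2 = 30-50%; 1 = 10-30%; 0 = under 10%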; details: dose 100 g active ingredient per 10 ares, examined on the 21st day after treatment, standards of Table 44
Summary of the method: (§2)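 Pre-emergence test: barnyard grass and green foxtail sown in upland soil, then soil surface sprayed with wettable-powder formulation at 100 g active ingredient per 10 ares (100 l per 10 ares). Grown in greenhouse; herbicidal effect scored on a rating scale 21 days after treatment.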

barnyard grass (Eo) [4] = assay: Test Example 1: herbicidal effects by flooded paddy field treatment; set-up: herbicidal effects, Eo (barnyard grass):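 0-5 growth inhibition grade; 5 = over 90%; 4 = 70-90%; 3 = 50-70%; 2 = 30-50%; 1 = 10-30%; 0 = under 10%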; details: for herbicidal effects, Eo (barnyard grass): dose 100 g active ingredient per 10 ares, examined on the 21st day after treatment, standards of Table 44; for Herbicidal effect index, Eo: dose 100 gai/10a, examined on 21st day after treatment, index 0-5 per Table 44;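 for Herbicidal effect index, Eo: 0-5 growth inhibition grade; 5 = over 90%; 4 = 70-90%; 3 = 50-70%; 2 = 30-50%; 1 = 10-30%; 0 = under 10%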
Summary of the method: as §1

green foxtail (Se) = assay: Test Example 2: herbicidal effects by upland soil treatment; details: dose 100 g active ingredient per 10 ares, examined on the 21st day after treatment, standards of Table 44;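 note: 0-5 growth inhibition grade; 5 = over 90%; 4 = 70-90%; 3 = 50-70%; 2 = 30-50%; 1 = 10-30%; 0 = under 10%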
Summary of the method: as §2

barnyard grass (Eo) [5] = assay: Test Example 4: selectivity for a crop plant by flooded paddy field treatment; set-up: scale not given here; details: for Eo (herbicidal effect index): barnyard grass, dose 25 gai/10a, 21st day after treatment, index per Table 44; for Eo (herbicidal effects, index): dose 25 g active ingredient per 10 ares, examined on the 21st day after treatment
Summary of the method: (§3)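 Paddy soil in pots was puddled, weed seeds were sown, second-leaf-stage rice was transplanted, and the pots were flooded to 3 cm. The next day a water-diluted wettable powder was dropped onto the water surface at 25 g active ingredient per 10 ares. Herbicidal effect was scored on a rating scale 21 days after treatment in a greenhouse.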

monochoria (Mo) [6] = assay: as above; set-up: scale not given here; details: for Mo (herbicidal effect index): monochoria, dose 25 gai/10a, 21st day after treatment, index per Table 44; for Mo (herbicidal effects, index): dose 25 g active ingredient per 10 ares, examined on the 21st day after treatment
Summary of the method: as §3

rice (Or) = assay: as above; set-up: scale not given here; details: rice transplanted at second leaf stage; for Or (herbicidal effect index on crop): dose 25 gai/10a, 21st day after treatment, index per Table 44; for Or (effect on crop plant rice, index): dose 25 g active ingredient per 10 ares, examined on the 21st day after treatment
Summary of the method: as §3

Structure (SMILES)	Ec (herbicidal effects, index) (barnyard grass (Ec) [1])	herbicidal effects, Mo (monochoria) (monochoria (Mo) [2])	herbicidal effects, Ec (barnyard grass) (barnyard grass (Ec) [3])	herbicidal effects, Eo (barnyard grass) (barnyard grass (Eo) [4])	herbicidal effects, Se (green foxtail) (green foxtail (Se))	Eo (herbicidal effect index) (barnyard grass (Eo) [5])	Mo (herbicidal effect index) (monochoria (Mo) [6])	Or (herbicidal effect index on crop) (rice (Or))	Herbicidal effect index, Mo (monochoria (Mo) [2])	Herbicidal effect index, Eo (barnyard grass (Eo) [4])	Eo (herbicidal effects, index) (barnyard grass (Eo) [5])	Mo (herbicidal effects, index) (monochoria (Mo) [6])	Or (effect on crop plant rice, index) (rice (Or))
CSc1ncncc1C(C(C)C)N(C)C(=O)Cc1ccc(C)cc1 (racemic) [Compound 1-153]	4	5	5	5	5	5	5	1	–	–	–	–	–
Cc1ccc(CC(=O)N(C)C(c2ccc(F)cc2)c2cncnc2C(F)(F)F)cc1 (racemic) [1-220]	5	5	5	5	5	5	5	1	–	–	–	–	–
CCOc1ccc(CC(=O)N(C)C(c2cncnc2C(F)(F)F)C(C)C)cc1 (racemic) [Compound 1-13]	5	–	5	–	5	–	–	–	5	5	5	5	1
CC(C)C(c1cncnc1C(F)(F)F)N(C)C(=S)Cc1ccc(Cl)cc1 (racemic) [Compound 1-144]	4	5	5	5	5	5	5	1	–	–	–	–	–
CC(C)C(c1cncnc1C(F)(F)F)N(C)C(=O)Cc1ccc(Cl)cc1 (racemic) [Compound 1-22]	4	–	5	–	5	–	–	–	5	5	5	5	1
CCCC(c1cncnc1C(F)(F)F)N(C)C(=O)Cc1ccc(C)cc1 (racemic) [Compound 1-113]	4	–	5	–	4	5	5	0	5	5	–	–	–
CN(C(=O)Cc1ccc(F)cc1)C(c1ccc(F)cc1)c1cncnc1C(F)(F)F (racemic) [1-218]	4	5	5	5	5	5	5	1	–	–	–	–	–
CN(C(=O)Cc1ccccc1)C(c1cncnc1C(F)(F)F)C1CCCC1 (racemic) [Compound 1-137]	5	5	5	5	5	5	5	1	–	–	–	–	–
CC(C)C(c1cncnc1C(F)(F)F)N(C)C(=O)Cc1ccc(Br)cc1 (racemic) [Compound 1-41]	5	–	5	–	5	–	–	–	5	5	5	5	0
COc1cc(CC(=O)N(C)C(c2cncnc2C(F)(F)F)C(C)C)ccc1Cl (racemic) [Compound 1-47]	4	–	5	–	5	–	–	–	5	5	5	5	0
C#CCN(C(=O)Cc1ccc(F)cc1)C(c1cncnc1C(F)(F)F)C(C)C (racemic) [Compound 1-172]	5	5	5	5	5	5	5	1	–	–	–	–	–
CSc1ncncc1C(C(C)C)N(C)C(=O)Cc1ccc(F)cc1 (racemic) [Compound 1-152]	4	5	5	5	5	5	5	1	–	–	–	–	–
CC(C)C(c1cncnc1C(F)(F)F)N(C)C(=O)Cc1cccc(Cl)c1 (racemic) [Compound 1-21]	4	–	5	–	5	–	–	–	5	5	5	5	1
CC(C)C(c1cncnc1C(F)(F)F)N(C)C(=O)COc1cccc(Cl)c1 (racemic) [Compound 1-133]	5	5	5	5	5	5	5	1	–	–	–	–	–
Cc1ncncc1C(C(C)C)N(C)C(=O)Cc1ccccc1 (racemic) [Compound 1-87]	4	–	5	–	5	–	–	–	5	5	5	5	1
